{"source": "patent US20250248405A1", "about": "“COMBINATIONS FOR CONTROLLING POST-HARVEST PATHOGENS IN AGRICULTURAL PRODUCE AND METHOD OF USE THEREOF” (Decco Worldwide Post Harvest Holding BV, priority 2024, published 2025)", "key": {"[1]": {"system": "Candida oleophila strain O", "test": "Compatibility test on fungicide-amended PDA solid medium (colony count of biocontrol agent)", "assay_type": "cell-based", "conditions": "for Compatibility: Candida oleophila strain O 10^2-10^3 cfu/ml", "method": "“Compatibility” as used herein the specification, means how well a fungicide mixes with other substances. It's important to know how two formulations interact with other to avoid problems like reduced effectiveness or increased toxicity and herein measured by the unaffected colony count of biocontrol agent upon mixing with chemical fungicides.\nThe disclosure will be illustrated with reference to the following examples: Compatibility of biocontrol agent: Candida oleophila strain O was tested with various preharvest and post-harvest fungicides to test if they have any negative effect on Candida oleophila strain activity. The dry mass of a single Candida oleophila cell, including strain O, is approximately 47.65 picograms (pg) (48 pg=48×10^−9 mg), which is a typical mass for a single yeast cell.\n1 gram of biomass (10^10 cfu/gm) was activated in 100 ml of water for 45 minutes. 1 ml of the biomass suspension was mixed with 99 ml of lactate dilution (2 g calcium lactate diluted in 99 ml water). Biomass solution was further diluted to 100 and 1000 folds and 100 μl of the diluted biomass solution was plated on synthetic fungicide amended PDA (Potato dextrose agar) plates, which yields around 10^3 and 10^2 cfu/plate, respectively, in fully compatible mixtures. Plates were incubated at 23° C. and the growth of CFUs (colony forming units) and total number of Candida oleophila colonies were counted after 5-7 days.\nPesticide amended PDA plates were prepared by inoculating pesticide on a Potato dextrose agar plate at no treatment (control), standard (full dose) and reduced (half dose) depending on the treatments. For e.g., if a pesticide has standard dose concentration of 5 ppm, then plates were prepared at 0 ppm, 2.5 ppm and 5 ppm. with that pesticide."}, "[2]": {"system": "Mucor sp.", "test": "Artificial wound inoculation of Fuji apples, Mucor rot decay", "assay_type": "in vivo", "conditions": "solo at full rate (TBZ 1.45 g/L, PYR 1.35 g/L, FDL 0.85 g/L, C. oleophila 0.33 g/L), control 100", "method": "(§1) Several lab trials were conducted to test efficacy of Candida oleophila strain O against major post-harvest pathogens of pome (Blue mold: Penicillium expansum, Gray mold: Botrytis cinerea, Bull's eye rot: Neofabraea perennans and Mucor rot and to test synergistic interaction of Candida oleophila strain O with 3 post-harvest fungicides of pome fruits namely Fludioxonil (FDL), Pyrimethanil (PYR) and Thiabendazole (TBZ).\n(§2) Candida oleophila strain O was applied solo and in combination with three different post-harvest fungicides at full rate (FR) and half label rate (HR) (for conventional fungicides) to study its compatibility and synergist interaction. Testing was done on artificially/lab inoculated and naturally infected fruits.\n(§3) For artificial inoculations through wound, washed fruits were wounded twice at the stem end region and were kept for 30 mins to dry the juice from the wound site. Fruits were fully submerged in fungicide solutions for 1 min and then transferred to a perforated basket to drip dry. Fruits were the transferred to the fruit trays and were left to dry overnight. 5×10^4 fungal spores/mL spore suspension of post-harvest pathogens as indicated above was prepared for inoculation. 50 μL spore suspension was transferred in each wound using a pipette and was left to dry for 1 hr at room temperature. Fruits were stored in cold storage. Fruit decay was monitored periodically, when decay on control fruit was above 80%, the disease incidence and severity was evaluated on all the treatments."}, "[3]": {"system": "Botrytis cinerea", "test": "Artificial wound inoculation of Fuji apples, gray mold decay", "assay_type": "in vivo", "conditions": "solo at full rate (PYR 1.35 g/L, FDL 0.85 g/L, C. oleophila 0.33 g/L), control 47", "method": "as §1, §2\nas §3, with “50 μL spore suspension was transferred in each wound using a pipette and was left to dry for 1 hr at room temperature. Fruits were stored in cold storage.” left out"}, "[4]": {"system": "Penicillium expansum", "test": "Artificial wound inoculation of Fuji apples, blue mold decay", "assay_type": "in vivo", "conditions": "solo at full rate (TBZ 1.45 g/L, PYR 1.35 g/L, FDL 0.85 g/L, C. oleophila 0.33 g/L), control 94", "method": "as §1, §2, §3"}, "[5]": {"system": "Neofabraea perennans", "test": "Artificial wound inoculation of Fuji apples, bull's eye rot decay", "assay_type": "in vivo", "conditions": "solo at full rate (TBZ 1.45 g/L, PYR 1.35 g/L, FDL 0.85 g/L, C. oleophila 0.33 g/L), control 98", "method": "as §1, §2, §3"}, "[6]": {"system": "Candida oleophila strain O", "test": "Compatibility test on fungicide-amended PDA solid medium (colony count of biocontrol agent)", "assay_type": "cell-based", "conditions": "Candida oleophila strain O 10^6 cfu/ml"}}, "data": [{"smiles": "O=C(Nc1ccccc1-c1ccc(Cl)cc1)c1cccnc1Cl", "note": "[Boscalid]", "values": [{"measurement": "Compatibility of Candida oleophila strain O with the fungicide (text summary of Table 1)", "setting": "[1]", "value": "compatible"}]}, {"smiles": "[Cl-].[Cu+2].[Cu+2].[OH-].[OH-].[OH-]", "note": "[Copper oxychloride]", "values": [{"measurement": "Compatibility of Candida oleophila strain O with the fungicide (text summary of Table 1)", "setting": "[1]", "value": "compatible"}]}, {"smiles": "O=S(=O)([O-])[O-].[Cu+2]", "note": "[Copper sulphate]", "values": [{"measurement": "Compatibility of Candida oleophila strain O with the fungicide (text summary of Table 1)", "setting": "[1]", "value": "compatible"}]}, {"smiles": "N#Cc1c[nH]cc1-c1cccc2c1OC(F)(F)O2", "note": "[Fludioxonil]", "values": [{"measurement": "Decay severity (%) Mucor sp.", "setting": "[2]", "value": 100, "unit": "%"}, {"measurement": "Decay severity (%) Botrytis sp.", "setting": "[3]", "value": 2, "unit": "%"}, {"measurement": "Decay severity (%) Penicillium sp.", "setting": "[4]", "value": 0, "unit": "%"}, {"measurement": "Compatibility of Candida oleophila strain O with the fungicide (text summary of Table 1)", "setting": "[1]", "value": "compatible"}, {"measurement": "Decay severity (%) Neofabrea sp.", "setting": "[5]", "value": 83, "unit": "%"}]}, {"smiles": "Cn1cc(C(=O)Nc2ccccc2-c2cc(F)c(F)c(F)c2)c(C(F)F)n1", "note": "[Fluxapyroxad]", "values": [{"measurement": "Compatibility of Candida oleophila strain O with the fungicide (text summary of Table 1)", "setting": "[1]", "value": "compatible"}, {"measurement": "Compatibility", "setting": "[1]; fungicide 300 g/L a.i., tested dosage 0.5-2 ppm", "value": "YES"}, {"measurement": "Compatibility", "setting": "[1]; fungicide 300 g/L a.i., tested dosage 0.9 ppm", "value": "YES"}]}, {"smiles": "COC(=O)N(OC)c1ccccc1COc1ccn(-c2ccc(Cl)cc2)n1", "note": "[Pyraclostrobin]", "values": [{"measurement": "Compatibility of Candida oleophila strain O with the fungicide (text summary of Table 1)", "setting": "[1]", "value": "compatible"}, {"measurement": "Compatibility", "setting": "[1]; fungicide 250 g/L a.i., tested dosage 2-8 ppm", "value": "YES"}]}, {"smiles": "Cc1cc(C)nc(Nc2ccccc2)n1", "note": "[Pyrimethanil]", "values": [{"measurement": "Decay severity (%) Mucor sp.", "setting": "[2]", "value": 100, "unit": "%"}, {"measurement": "Decay severity (%) Botrytis sp.", "setting": "[3]", "value": 7, "unit": "%"}, {"measurement": "Compatibility", "setting": "[6]; fungicide 600 g/L a.i., tested dosage 800 ppm", "value": "YES"}, {"measurement": "Decay severity (%) Penicillium sp.", "setting": "[4]", "value": 7, "unit": "%"}, {"measurement": "Compatibility of Candida oleophila strain O with the fungicide (text summary of Table 1)", "setting": "[1]", "value": "compatible"}, {"measurement": "Decay severity (%) Neofabrea sp.", "setting": "[5]", "value": 70, "unit": "%"}]}, {"smiles": "c1ccc2[nH]c(-c3cscn3)nc2c1", "note": "[Thiabendazole]", "values": [{"measurement": "Decay severity (%) Mucor sp.", "setting": "[2]", "value": 100, "unit": "%"}, {"measurement": "Compatibility", "setting": "[6]; fungicide 500 g/L a.i., tested dosage 200 ppm", "value": "YES"}, {"measurement": "Decay severity (%) Penicillium sp.", "setting": "[4]", "value": 4, "unit": "%"}, {"measurement": "Compatibility of Candida oleophila strain O with the fungicide (text summary of Table 1)", "setting": "[1]", "value": "compatible"}, {"measurement": "Decay severity (%) Neofabrea sp.", "setting": "[5]", "value": 22, "unit": "%"}]}, {"smiles": "COC(=O)NC(=S)Nc1ccccc1NC(=S)NC(=O)OC", "note": "[Thiophanate-methyl]", "values": [{"measurement": "Compatibility of Candida oleophila strain O with the fungicide (text summary of Table 1)", "setting": "[1]", "value": "compatible"}]}]}
